# Paper PMC13289212, “HIVIL: A human in vitro inflammatory liver model recapitulates immune-associated drug effects with high predictivity” (NAM journal, 2025)
# pIC50: −log10 of the molar value. Where two headings read alike, the source gives them in different places.
# Key:
# [1] = FDA-labeling information; ref Chen et al. 2016; cited from earlier work
# IL-10 [2] = test system: IL-10; set-up: method as in Bekker et al. 2016; conditions: ref Bekker et al. 2016; cited from earlier work
# IL-6 [3] = assay: IL-6 ELISA in iPSC(F4)-derived HIVIL; type: cell-based, human; conditions: result in words
# Method: (§1) Enzyme-linked immunosorbent assay (ELISA) for measurement of cytokines: Interleukin-6 (IL-6), interleukin-10 (IL-10) and tumor necrosis factor alpha (TNFα) levels in the media were measured using the corresponding human-based ELISA kits (Abcam, Cambridge, United Kingdom) according to manufacturer’s instructions. The cytokine production from dosed cells was normalized with the viability value from the same well. The normalized cytokine level upon drug treatments was further presented as percentage of DMSO+LPS. Normalization to viability per well ensures that any changes in cytokines are not due to changes in cell numbers upon drug treatment and normalization to DMSO+LPS allows better comparison between different batches of experiments. This normalization approach has been used in previous studies (Rose et al. 2016).
# [4] = test system: HIVIL (iKCs co-cultured with iHeps); assay: AlamarBlue cell viability in HIVIL; conditions: for pIC50: Homo sapiens
# Method: (§2) Stock solutions of drugs were prepared in dimethyl sulfoxide (DMSO) and dissolved in medium prior to use. […] For these two drugs, the highest DMSO concentration was 1 %. Supernatant was collected at 48 hr for measurement of cytokines, and remaining cells were subjected to viability assay prior to lysis for RNA extraction.
# IL-6 [5] = conditions: other in vitro models deploying 1-10 μg/mL of LPS; ref Jiang et al. 2019; Li et al. 2020; cited from earlier work
# cytokines = test system: cytokines; set-up: method as in ref Ganey et al. 2004; Honarmand et al. 2012; Manna and Aggarwal 1999; Yao et al. 2004; conditions: ref Ganey et al. 2004; Honarmand et al. 2012; Manna and Aggarwal 1999; Yao et al. 2004; cited from earlier work
# IL-6 [6] = assay: IL-6 ELISA in HIVIL (iKCs co-cultured with iHeps, LPS, 48 hr); type: cell-based, human; conditions: for IL-6 response: result in words; for pIC50: Homo sapiens, LPS, 48 hr
# Description: Human iPSC cell line iPS (IMR90)-4 was purchased from WiCell Research Institute (Madison, WI), and maintained with a feeder-free method according to the instruction from […] Technologies (Vancouver, BC, Canada). The protocol of differentiation towards iKCs and iHeps as described previously with slight modification ([Tasnim et al., 2019]; [Cai et al., 2012]), respectively. […] More details are provided in Supplementary Methods. After differentiation, iKCs was harvested using 0.05 % trypsin-EDTA (Gibco, Waltham, Massachusetts, USA), while iHeps were dissociated with TrypLE^TM (Gibco). iHep suspension was further filtered through a 40 µm cell strainer to remove extracellular matrix clumps. Cell suspension was centrifuged at 1000 rpm for 5 min. For co-culture set up, tissue culture plates were coated with Rat tail collagen I (Gibco) diluted 100-fold in 0.02 N acetic acid, and incubated at 37 °C for 1 h and washed 3 times with PBS. According to the protocol optimized by [Tasnim et al. (2019)], iKCs was firstly seeded at a density of 14,000 per well on 96-well plate with Advanced DMEM (plus supplements) containing 5 % FBS. On the following day, iHeps were added at a density of 35,000 per well in Williams’ Medium E (plus supplements) (iHep: iKCs ratio = 2.5: 1). This reflects the physiological ratio of these cells in vivo under inflammatory conditions ([Tasnim et al., 2021]). Fresh media containing drugs was applied to co-cultures the next day. 50,000 cells were seeded to establish iHeps monoculture. THP-1 cells were kindly obtained from Dr. Eliza Fong and cultured as described by [Zeng et al. (2015)]. Details provided in Supplementary Methods.
# as §2
# as §1, with “Normalization to viability per well ensures that any changes in cytokines are not due to changes in cell numbers upon drug treatment and normalization to DMSO+LPS allows better comparison between different batches of experiments.” left out
# IL-6 [7] = assay: IL-6 production of iKC mono-culture; type: cell-based, human; conditions: result in words
# Method: as §1
# [8] = binary classification by human hepatotoxicity; ref Thakkar et al. 2020; cited from earlier work
# iHeps mono-cultures = test system: iHeps mono-cultures; set-up: method as in Kia et al., 2015; conditions: ref Kia et al., 2015; cited from earlier work
# PHH-PHKC co-culture = test system: PHH-PHKC co-culture; set-up: method as in Messner et al., 2013; Sarkar et al., 2017; conditions: ref Messner et al., 2013; Sarkar et al., 2017; cited from earlier work
# IL-6 [9] = test system: IL-6; set-up: method as in Steuerwald et al. 2013; Mahdy et al. 2002; Kang et al. 2001; conditions: ref Steuerwald et al. 2013; Mahdy et al. 2002; Kang et al. 2001; cited from earlier work
# [10] = Cammett et al. 2009, Mendes et al. 2014, cited from earlier work
# IL-6 [11] = assay: IL-6 response in HIVIL using THP-1 macrophages co-cultured with iHeps; type: cell-based, human; conditions: HIVIL with THP-1 instead of iKCs, result in words
# Description: Human iPSC cell line iPS (IMR90)-4 was purchased from WiCell Research Institute (Madison, WI), and maintained with a feeder-free method according to the instruction from […] Technologies (Vancouver, BC, Canada). The protocol of differentiation towards iKCs and iHeps as described previously with slight modification ([Tasnim et al., 2019]; [Cai et al., 2012]), respectively. The re-optimized protocol to generate iKCs is discussed in Results section. More details are provided in Supplementary Methods. After differentiation, iKCs was harvested using 0.05 % trypsin-EDTA (Gibco, Waltham, Massachusetts, USA), while iHeps were dissociated with TrypLE^TM (Gibco). iHep suspension was further filtered through a 40 µm cell strainer to remove extracellular matrix clumps. Cell suspension was centrifuged at 1000 rpm for 5 min. For co-culture set up, tissue culture plates were coated with Rat tail collagen I (Gibco) diluted 100-fold in 0.02 N acetic acid, and incubated at 37 °C for 1 h and washed 3 times with PBS. According to the protocol optimized by [Tasnim et al. (2019)], iKCs was firstly seeded at a density of 14,000 per well on 96-well plate with Advanced DMEM (plus supplements) containing 5 % FBS. On the following day, iHeps were added at a density of 35,000 per well in Williams’ Medium E (plus supplements) (iHep: iKCs ratio = 2.5: 1). This reflects the physiological ratio of these cells in vivo under inflammatory conditions ([Tasnim et al., 2021]). Fresh media containing drugs was applied to co-cultures the next day. 50,000 cells were seeded to establish iHeps monoculture. THP-1 cells were kindly obtained from Dr. Eliza Fong and cultured as described by [Zeng et al. (2015)]. Details provided in Supplementary Methods.
# THP-1 maintenance and differentiation: THP-1 monocytic lineage was maintained in RPMI 1640 with 10% FBS. For differentiation to macrophages, suspension cells were collected and subjected to 2-day phorbol 12-myristate 13-acetate (PMA) treatment (50 ng/ml), followed by a 1-day PMA-free medium resting. THP-1 macrophages were trypsinzed and used for co-culture as described in Material and methods.
# as §1
# IL-10 [12] = test system: IL-10; set-up: method as in Mahdy et al. 2002; conditions: ref Mahdy et al. 2002; cited from earlier work
# IL-10 [13] = assay: IL-10 ELISA in HIVIL (iKCs co-cultured with iHeps, LPS, 48 hr); type: cell-based, human; conditions: result in words
# Description: Human iPSC cell line iPS (IMR90)-4 was purchased from WiCell Research Institute (Madison, WI), and maintained with a feeder-free method according to the instruction from […] Technologies (Vancouver, BC, Canada). The protocol of differentiation towards iKCs and iHeps as described previously with slight modification ([Tasnim et al., 2019]; [Cai et al., 2012]), respectively. […] More details are provided in Supplementary Methods. After differentiation, iKCs was harvested using 0.05 % trypsin-EDTA (Gibco, Waltham, Massachusetts, USA), while iHeps were dissociated with TrypLE^TM (Gibco). iHep suspension was further filtered through a 40 µm cell strainer to remove extracellular matrix clumps. Cell suspension was centrifuged at 1000 rpm for 5 min. For co-culture set up, tissue culture plates were coated with Rat tail collagen I (Gibco) diluted 100-fold in 0.02 N acetic acid, and incubated at 37 °C for 1 h and washed 3 times with PBS. […]
# Enzyme-linked immunosorbent assay (ELISA) for measurement of cytokines: Interleukin-6 (IL-6), interleukin-10 (IL-10) and tumor necrosis factor alpha (TNFα) levels in the media were measured using the corresponding human-based ELISA kits (Abcam, Cambridge, United Kingdom) according to manufacturer’s instructions. […]
# PHH = test system: PHH; set-up: method as in Mennecozzi et al., 2015; conditions: ref Mennecozzi et al., 2015; read-out: IC50 in PHH mono-cultures; cited from earlier work
# [14] = 48 h, read-out: IC50: viability
smiles,measurement,setting,value
"CC(=O)Nc1ccc(O)cc1 [APAP, acetaminophen]",DILIrank,[1],most
same,Reported in-vivo (murine) responses: IL-10,IL-10 [2],IL-10↓
same,IL-6 production,IL-6 [3],Dose-dependent decrease
same,pIC50,[4]; [14],1.99
same,"viability profiles among iHeps, iKCs and HIVIL",[4]; comparison of mono-cultures and co-culture,similar
same,IL-6 change,IL-6 [5],increased
same,Reported in-vivo (murine) responses: cytokines,cytokines,IL-6/IL-10 are protective factors
same,reduction of IL-6 in HIVIL,IL-6 [6]; 2 mM,~50%
same,group by drug-dependent IL-6 production,IL-6 [6]; HIVIL,dose-dependent inhibition
same,reduction of IL-6,IL-6 [6]; HIVIL,50%
same,IL-6 response,IL-6 [6]; HIVIL,decreased
same,pIC50,IL-6 [6]; HIVIL,2.27
same,IL-6 / cytokine production in iKC mono-culture,IL-6 [7],remained unchanged
"O=C(O)Cc1ccccc1Nc1c(Cl)cccc1Cl [DIC, diclofenac]",DILIrank,[1],most
same,DILIst,[8],1
same,pIC50,iHeps mono-cultures,~3.00
same,pIC50,PHH-PHKC co-culture,~3.90
same,IL-6 production,IL-6 [3],Dose-dependent decrease
same,Reported human responses: IL-6,IL-6 [9],IL-6↓
same,Cmax,"[10]; ref in each cell: Ademisoye et al. 2018, Xu et al. 2008, Agabeyoglu and Incecayir 2009, Rojanasthien et al. 2007, Reunanen et al. 1992, Li et al. 2002, Hong-mei et al. 2013, Bareggi et al. 1987, Jiang et al. 2008",8 µM
same,Cmax,[10]; ref in each cell: Xu et al. 2008,8 µM
same,drug-specific IL-6 response with THP-1 macrophages,IL-6 [11],did not detect
same,Reported human responses: IL-10,IL-10 [12],IL-10↑
same,pIC50,[4]; [14],3.41
same,pIC50,[4]; read-out: IC50 (drug toxicity) in HIVIL,3.41
same,IL-6 response,IL-6 [6]; HIVIL,dose-dependent decrease
same,pIC50,IL-6 [6]; HIVIL,3.95
same,IL-10 response,IL-10 [13],decrease
same,pIC50,PHH,~3.00
